Where two headings read alike, the source gives them in different places.
Legend:
[1] = target: T1, purified recombinant perforin (Mus musculus, UniProt P10820); experiment: cell-based; format: cell-based; conditions: lysis of Jurkat cells by purified recombinant perforin, 51Cr release, 0.1% BSA; average of at least three determinations; read-out: inhibition of Jurkat cell lysis, IC50
T1 sequence (P10820 21-554): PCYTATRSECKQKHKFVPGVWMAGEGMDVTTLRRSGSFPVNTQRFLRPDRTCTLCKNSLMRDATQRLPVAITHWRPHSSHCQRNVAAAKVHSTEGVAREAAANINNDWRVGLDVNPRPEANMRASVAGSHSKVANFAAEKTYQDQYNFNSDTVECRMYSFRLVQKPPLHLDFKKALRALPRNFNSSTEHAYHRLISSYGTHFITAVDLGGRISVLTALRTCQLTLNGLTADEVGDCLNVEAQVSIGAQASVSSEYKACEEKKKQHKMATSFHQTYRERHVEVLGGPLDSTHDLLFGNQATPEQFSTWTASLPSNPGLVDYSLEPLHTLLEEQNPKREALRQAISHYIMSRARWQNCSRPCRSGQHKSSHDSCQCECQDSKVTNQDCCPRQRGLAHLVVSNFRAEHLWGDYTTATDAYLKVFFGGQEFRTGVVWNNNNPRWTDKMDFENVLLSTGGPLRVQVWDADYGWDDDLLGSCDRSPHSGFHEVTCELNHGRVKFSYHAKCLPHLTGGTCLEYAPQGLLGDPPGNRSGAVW
Description: The ability of the compounds to inhibit the lysis of nucleated (Jurkat T lymphoma) cells in the presence of 0.1% BSA was measured by release of ^51Cr label. Jurkat target cells were labeled by incubation in medium with 100 μCi ^51Cr for 1 h. The cells were then washed three times to remove unincorporated isotope and resuspended at 1 × 10^5 cells per milliliter in RPMI buffer supplemented with 0.1% BSA. […] Each data point was performed in triplicate, and an IC50 was calculated from the range of concentrations described above.

[2] = Aqueous solubility of parent compound and sodium salt; conditions: aqueous medium (not further specified)
[3] = target: T2, perforin produced by an intact NK cell line (KHYG-1) (Homo sapiens, UniProt P14222); experiment: KHYG-1 cytotoxicity assay: perforin-induced lysis of K562 target cells co-incubated with KHYG-1 NK cells; format: cell-based; conditions: 20 μM, K562 targets, ± SEM
T2 construct: the perforin is delivered by a functional NK cell; endogenous in cells; host or cells: KHYG-1 NK cells (K562 target cells)
T2 sequence (P14222 22-555): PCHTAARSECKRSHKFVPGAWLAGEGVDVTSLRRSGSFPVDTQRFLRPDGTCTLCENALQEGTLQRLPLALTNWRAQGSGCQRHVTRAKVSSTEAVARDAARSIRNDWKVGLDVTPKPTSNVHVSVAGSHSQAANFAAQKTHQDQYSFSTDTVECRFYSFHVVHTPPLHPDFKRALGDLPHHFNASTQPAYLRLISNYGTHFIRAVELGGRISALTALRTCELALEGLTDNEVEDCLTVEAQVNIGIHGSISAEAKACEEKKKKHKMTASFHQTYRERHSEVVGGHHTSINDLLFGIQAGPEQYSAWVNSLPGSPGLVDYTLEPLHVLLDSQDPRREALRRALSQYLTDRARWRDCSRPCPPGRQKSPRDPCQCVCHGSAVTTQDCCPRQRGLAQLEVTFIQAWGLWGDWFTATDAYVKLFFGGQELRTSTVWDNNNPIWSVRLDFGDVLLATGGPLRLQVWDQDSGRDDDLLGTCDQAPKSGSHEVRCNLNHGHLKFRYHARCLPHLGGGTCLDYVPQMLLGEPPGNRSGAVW
Description: KHYG-1 cells were washed and resuspended in RPMI + 0.1% BSA at 4 × 10^5 cells/mL, and an amount of 50 μL of KHYG-1 cells was dispensed to each well of a 96-well V-bottom plate. RPMI (50 μL) + 0.1% BSA or 10% (final concentration) of serum was added to each well. Then test compounds were added to KHYG-1 cells at various concentrations up to 20 μM and incubated at room temperature for 20 min. 1 × 10^6 K562 target cells were labeled with 75 μCi ^51Cr in 200 μL of RPMI for 90 min at 37 °C. Cells were washed as described above and resuspended in 5 mL of RPMI + 0.1% BSA. […] The percentage of specific cytotoxicity was calculated using the following formula: [drawing 4] and expressed as the mean of triplicate assays ± standard error of the mean.

[4] = Toxicity to KHYG-1 NK cells (Trypan blue exclusion); format: cell-based, human; conditions: human, KHYG-1 NK cells; 20 μM, 4 h exposure, viability after 24 h, Trypan blue, ± SEM
Description: The toxicity assay was carried out in exactly the same manner as the killing assay above, but instead of adding the labeled K562 target cells, 100 μL of RPMI 0.1% BSA was added. Cells were incubated for 4 h at 37 °C and then washed ×3 in RPMI + 0.1% BSA. […] Trypan blue was added to each well. Viable (clear) cells and total (clear + blue) cells were counted, and the percentage of viable cells was calculated compared to DMSO treated cell control (% viability).

[5] = 10% mouse serum, read-out: KHYG-1 inhibition (% at 20 μM), 10% serum
[6] = no serum, vs untreated control, read-out: KHYG-1 inhibition (% at 20 μM), no serum

SMILES	IC50 [1]	solubility [2]	inhibition at 20 µM [3, 5]	inhibition at 20 µM [3, 6]	viability at 4 h, 20 µM [4]
O=C1NC(=S)N/C1=C/c1ccc(-c2ccc3c(c2)COC3=O)s1 [compound 4]	780 nM	23 µg/mL	38.9 ± 3.5%	53 ± 2.6%	88 ± 3%
O=C1NC(=S)N/C1=C/c1ccc(-c2ccc3c(c2)CNC3=O)s1 [compound 118]	2550 nM	0.54 µg/mL	55 ± 6.5%	56 ± 7.2%	95 ± 3.5%
CN1Cc2cc(-c3ccc(/C=C4/NC(=S)NC4=O)s3)ccc2C1=O [compound 119, (E,Z)-2-Methyl-5-(5-((5-oxo-2-thioxoimidazolidin-4-ylidene)methyl)thiophen-2-yl)isoindolin-1-one]		0.13 µg/mL	37 ± 2.4%	42 ± 5.5%	28 ± 1.5%
O=C1NC(=S)N/C1=C/c1ccc(-c2ccc3c(c2)CN(CCO)C3=O)s1 [compound 125, (E,Z)-2-(2-Hydroxyethyl)-5-(5-((5-oxo-2-thioxoimidazolidin-4-ylidene)methyl)thiophen-2-yl)isoindolin-1-one]	780 nM	43 µg/mL	24 ± 3.4%	43 ± 5.8%	81 ± 0.5%
O=C1NC(=S)N/C1=C/c1ccc(-c2ccc3c(c2)CN(CCCO)C3=O)s1 [compound 126]	530 nM	1.78 µg/mL	17 ± 3%	48 ± 7.9%	90 ± 3%
CCOC(=O)N1Cc2cc(-c3ccc(/C=C4/NC(=S)NC4=O)s3)ccc2C1=O [compound 129]	550 nM	0.18 µg/mL	35 ± 9.5%	46 ± 5.9%	93 ± 4.1%
O=C1NC(=O)/C(=C\c2ccc(-c3ccc4c(c3)CNC4=O)s2)N1 [compound 136]	400 nM	11.6 µg/mL	50 ± 7.1%	49 ± 9.8%	93 ± 3%
O=C1NC(=S)N/C1=C/c1ccc(-c2ccc3c(c2)C(=O)NCC3)s1 [compound 168]	640 nM	0.13 µg/mL	23 ± 7.1%	51 ± 4%	87 ± 4.1%
O=C1NC(=S)N/C1=C/c1ccc(-c2ccc3c(c2)CNC3=O)cn1 [compound 207]	630 nM	0.59 µg/mL	13 ± 3.8%	43 ± 5.4%	92 ± 2.6%

Reference: publication PMC3865801 (Journal of Medicinal Chemistry, 2013)
